Several values for one entry are separate records, joined by “and”; a condition that tells them apart may be missing. Equal entries are not always repeated.
Experiments:
Details in all cases: average where tested multiple times
[1] = biological target: T1, BCAT2 (Homo sapiens, UniProt O15382); test: BCAT2 in vitro enzyme inhibition assay (resazurin/diaphorase-coupled fluorescence); type: biochemical
T1 sequence (O15382 28-392): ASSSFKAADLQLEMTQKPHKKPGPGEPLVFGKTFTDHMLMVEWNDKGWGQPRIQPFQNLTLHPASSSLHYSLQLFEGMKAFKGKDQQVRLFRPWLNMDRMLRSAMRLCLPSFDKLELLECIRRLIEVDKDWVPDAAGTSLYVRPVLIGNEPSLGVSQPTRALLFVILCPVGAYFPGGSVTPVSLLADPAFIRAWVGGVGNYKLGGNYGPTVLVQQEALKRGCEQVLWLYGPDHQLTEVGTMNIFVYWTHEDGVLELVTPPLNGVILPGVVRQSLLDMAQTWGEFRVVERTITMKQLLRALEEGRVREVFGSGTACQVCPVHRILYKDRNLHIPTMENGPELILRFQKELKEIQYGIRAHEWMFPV
How it was run: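 Coupled fluorescence readout: glutamate formed from L-leucine/α-ketoglutarate transamination drives GDH/NAD/diaphorase reduction of resazurin (Ex 540/Em 590). Human BCAT2 was first exposed 1 h at room temperature to compound, top final 100 μM in 3-fold, 10-point series; substrate reaction ran 1 h before SDS quench, in technical duplicate with DMSO max and enzyme-free min controls.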

[2] = biological target: T2, hBCAT1 (Homo sapiens, UniProt P54687); test: BCAT1 in vitro enzyme inhibition assay (resazurin/diaphorase-coupled fluorescence); type: biochemical
T2 sequence (P54687 1-386): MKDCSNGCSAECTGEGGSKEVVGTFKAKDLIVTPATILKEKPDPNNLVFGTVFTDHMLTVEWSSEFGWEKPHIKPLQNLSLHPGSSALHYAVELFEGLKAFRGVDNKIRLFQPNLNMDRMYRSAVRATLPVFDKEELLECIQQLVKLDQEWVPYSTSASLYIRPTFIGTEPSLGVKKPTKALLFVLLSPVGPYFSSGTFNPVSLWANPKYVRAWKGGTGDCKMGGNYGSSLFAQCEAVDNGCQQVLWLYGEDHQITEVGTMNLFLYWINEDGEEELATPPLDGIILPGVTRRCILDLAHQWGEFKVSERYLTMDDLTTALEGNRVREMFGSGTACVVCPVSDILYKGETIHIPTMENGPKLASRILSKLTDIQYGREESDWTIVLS
How it was run: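 Ten-point, 3-fold compound series (top final 100 μM, delivered 1:50 from 50× DMSO stocks) tested against hBCAT1. Inhibition detected via diaphorase-coupled resazurin fluorescence, duplicate wells, with values from repeated runs averaged.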

[3] = biological target: T1, BCAT2; test: BCAT2 in vitro cell inhibition using engineered A549 cells (KMV cell assay, 13C6-KMV by LC-MS/MS); type: cell-based; design: The result was an engineered A549 cell line that expressed endogenous BCAT2; endogenous in cells; host or cells: A549 cells with MUT and BCAT1 knocked out by CRISPR/CAS9; key to BCAT2 Cell Inhibition: A: less than or equal to 0.100 μM; B: greater than 0.100 and less than or equal to 0.500 μM; C: greater than 0.500 and less than or equal to 1.000 μM; d: greater than 1.000 μM; E: no fit

Row | Compound | IC50 [1] | IC50 [2] | IC50 [3] | BCAT2 Cell Inhibition [3]
1 | O=C(N[C@H]1CCC[C@@H](n2c(-c3ncccc3F)nc3cnc(-n4cncn4)cc32)C1)c1ncc(C(F)F)s1 [Example 28, 5-(difluoromethyl)-N-((1S,3R)-3-(2-(3-fluoropyridin-2-yl)-6-(1H-1,2,4-triazol-1-yl)-1H-imidazo[4,5-c]pyridin-1-yl)cyclohexyl)thiazole-2-carboxamide] | ≤ 100 nM | 1000 to 5000 nM | 500 to 1000 nM | –
2 | C#Cc1cnc(C(=O)N[C@H]2CCC[C@@H](n3c(-c4ncccc4F)nc4cnc(-n5cncn5)cc43)C2)s1 [Example 29, 5-ethynyl-N-((1S,3R)-3-(2-(3-fluoropyridin-2-yl)-6-(1H-1,2,4-triazol-1-yl)-1H-imidazo[4,5-c]pyridin-1-yl)cyclohexyl)thiazole-2-carboxamide] | ≤ 100 nM | 500 to 1000 nM | 100 to 500 nM | –
3 | O=C(N[C@H]1CCC[C@@H](n2c(-c3ccccn3)nc3cnc(-n4cccn4)cc32)C1)c1ccc(Br)s1 [Example 30, N-((1S,3R)-3-(6-(1H-pyrazol-1-yl)-2-(pyridin-2-yl)-1H-imidazo[4,5-c]pyridin-1-yl)cyclohexyl)-5-bromothiophene-2-carboxamide] | ≤ 100 nM | 1000 to 5000 nM | 500 to 1000 nM | –
4 | Cc1coc(-c2cc3c(cn2)nc(-c2ccccn2)n3[C@@H]2CCC[C@H](NC(=O)c3ccc(Br)s3)C2)n1 [Example 31, 5-bromo-N-((1S,3R)-3-(6-(4-methyloxazol-2-yl)-2-(pyridin-2-yl)-1H-imidazo[4,5-c]pyridin-1-yl)cyclohexyl)thiophene-2-carboxamide] | ≤ 100 nM | < 500 nM | ≤ 100 nM | –
5 | O=C(N[C@H]1CCC[C@@H](n2c(-c3ccccn3)nc3cnc(-n4ccnn4)cc32)C1)c1ncc(Br)s1 [Example 32, 5-bromo-N-((1S,3R)-3-(2-(pyridin-2-yl)-6-(1H-1,2,3-triazol-1-yl)-1H-imidazo[4,5-c]pyridin-1-yl)cyclohexyl)thiazole-2-carboxamide] | 100 to 500 nM | 1000 to 5000 nM | > 1000 nM | –
6 | C#Cc1cnc(C(=O)N[C@H]2CCC[C@@H](n3c(-c4ccccn4)nc4cnc(-n5ccnn5)cc43)C2)s1 [Example 33, 5-ethynyl-N-((1S,3R)-3-(2-(pyridin-2-yl)-6-(1H-1,2,3-triazol-1-yl)-1H-imidazo[4,5-c]pyridin-1-yl)cyclohexyl)thiazole-2-carboxamide] | ≤ 100 nM | 1000 to 5000 nM | 500 to 1000 nM | –
7 | O=C(N[C@H]1CCC[C@@H](n2c(-c3ccccn3)nc3cnc(-n4ccnn4)cc32)C1)c1ncc(C(F)F)s1 [Example 34, 5-(difluoromethyl)-N-((1S,3R)-3-(2-(pyridin-2-yl)-6-(1H-1,2,3-triazol-1-yl)-1H-imidazo[4,5-c]pyridin-1-yl)cyclohexyl)thiazole-2-carboxamide] | 100 to 500 nM | > 5000 nM | – | E
8 | O=C(N[C@H]1CCC[C@@H](n2c(-c3ncccc3F)nc3cnc(-n4ccnn4)cc32)C1)c1ncc(Br)s1 [Example 35, 5-bromo-N-((1S,3R)-3-(2-(3-fluoropyridin-2-yl)-6-(1H-1,2,3-triazol-1-yl)-1H-imidazo[4,5-c]pyridin-1-yl)cyclohexyl)thiazole-2-carboxamide] | ≤ 100 nM | 1000 to 5000 nM | 500 to 1000 nM | –
9 | C#Cc1cnc(C(=O)N[C@H]2CCC[C@@H](n3c(-c4ncccc4F)nc4cnc(-n5ccnn5)cc43)C2)s1 [Example 36, 5-ethynyl-N-((1S,3R)-3-(2-(3-fluoropyridin-2-yl)-6-(1H-1,2,3-triazol-1-yl)-1H-imidazo[4,5-c]pyridin-1-yl)cyclohexyl)thiazole-2-carboxamide] | ≤ 100 nM | 500 to 1000 nM | 100 to 500 nM | –
10 | O=C(N[C@H]1CCC[C@@H](n2c(-c3ncccc3F)nc3cnc(-n4ccnn4)cc32)C1)c1ncc(C(F)F)s1 [Example 37, 5-(difluoromethyl)-N-((1S,3R)-3-(2-(3-fluoropyridin-2-yl)-6-(1H-1,2,3-triazol-1-yl)-1H-imidazo[4,5-c]pyridin-1-yl)cyclohexyl)thiazole-2-carboxamide] | 100 to 500 nM | 1000 to 5000 nM | > 1000 nM | –
11 | O=C(N[C@H]1CCC[C@@H](n2c(-c3ccccc3F)nc3cnc(-n4ccnn4)cc32)C1)c1ncc(C(F)F)s1 [Example 38, 5-(difluoromethyl)-N-((1S,3R)-3-(2-(2-fluorophenyl)-6-(1H-1,2,3-triazol-1-yl)-1H-imidazo[4,5-c]pyridin-1-yl)cyclohexyl)thiazole-2-carboxamide] | ≤ 100 nM | 1000 to 5000 nM | 100 to 500 nM | –
12 | Cc1cnn(-c2cc3c(cn2)nc(-c2ccccn2)n3[C@@H]2CCC[C@H](NC(=O)c3ccc(Br)s3)C2)n1 [Example 39, 5-bromo-N-((1S,3R)-3-(6-(4-methyl-2H-1,2,3-triazol-2-yl)-2-(pyridin-2-yl)-1H-imidazo[4,5-c]pyridin-1-yl)cyclohexyl)thiophene-2-carboxamide] | ≤ 100 nM | < 500 nM | ≤ 100 nM | –
13 | Cn1ccc(-c2nc3cnc(-n4nccn4)cc3n2[C@@H]2CCC[C@H](NC(=O)c3ncc(C(F)F)s3)C2)n1 [Example 41, 5-(difluoromethyl)-N-((1S,3R)-3-(2-(1-methyl-1H-pyrazol-3-yl)-6-(2H-1,2,3-triazol-2-yl)-1H-imidazo[4,5-c]pyridin-1-yl)cyclohexyl)thiazole-2-carboxamide] | 100 to 500 nM | > 5000 nM | > 1000 nM | –
14 | Cn1nccc1-c1nc2cnc(-n3nccn3)cc2n1[C@@H]1CCC[C@H](NC(=O)c2ncc(C(F)F)s2)C1 [Example 43, 5-(difluoromethyl)-N-((1S,3R)-3-(2-(1-methyl-1H-pyrazol-5-yl)-6-(2H-1,2,3-triazol-2-yl)-1H-imidazo[4,5-c]pyridin-1-yl)cyclohexyl)thiazole-2-carboxamide] | ≤ 100 nM | > 5000 nM | 500 to 1000 nM and 100 to 500 nM | –
15 | Cn1nccc1-c1nc2cnc(-n3ccnn3)cc2n1[C@@H]1CCC[C@H](NC(=O)c2ncc(C(F)F)s2)C1 [Example 44, 5-(difluoromethyl)-N-((1S,3R)-3-(2-(1-methyl-1H-pyrazol-5-yl)-6-(1H-1,2,3-triazol-1-yl)-1H-imidazo[4,5-c]pyridin-1-yl)cyclohexyl)thiazole-2-carboxamide] | > 1000 nM | > 5000 nM | – | E
16 | Cn1cc(-c2nc3cnc(-n4nccn4)cc3n2[C@@H]2CCC[C@H](NC(=O)c3ncc(C(F)F)s3)C2)cn1 [Example 45, 5-(difluoromethyl)-N-((1S,3R)-3-(2-(1-methyl-1H-pyrazol-4-yl)-6-(2H-1,2,3-triazol-2-yl)-1H-imidazo[4,5-c]pyridin-1-yl)cyclohexyl)thiazole-2-carboxamide] | > 1000 nM | > 5000 nM | – | E
17 | Cn1cc(-c2nc3cnc(-n4ccnn4)cc3n2[C@@H]2CCC[C@H](NC(=O)c3ncc(C(F)F)s3)C2)cn1 [Example 46, 5-(difluoromethyl)-N-((1S,3R)-3-(2-(1-methyl-1H-pyrazol-4-yl)-6-(1H-1,2,3-triazol-1-yl)-1H-imidazo[4,5-c]pyridin-1-yl)cyclohexyl)thiazole-2-carboxamide] | > 1000 nM | > 5000 nM | – | E
18 | Cc1noc(C)c1-c1nc2cnc(-n3nccn3)cc2n1[C@@H]1CCC[C@H](NC(=O)c2ncc(C(F)F)s2)C1 [Example 47, 5-(difluoromethyl)-N-((1S,3R)-3-(2-(3,5-dimethylisoxazol-4-yl)-6-(2H-1,2,3-triazol-2-yl)-1H-imidazo[4,5-c]pyridin-1-yl)cyclohexyl)thiazole-2-carboxamide] | 500 to 1000 nM | > 5000 nM | – | E

From patent US20260159512A1, “BCAT2 INHIBITORS” (AGIOS PHARMACEUTICALS, INC., priority 2021, published 2026)
